The structures appear in SMILES notation.

A short description of data set [1]: Drug metabolism in pig brain homogenate assessed as 6-Diazo-5-oxo-L-norleucin formation by ion chromatogram analysis. The format is ADME, tissue-based, Sus scrofa.
Data set [2] can be described thus: Stability of the compound in DMSO measured for 24 hrs. The format is physicochemical.
Data set [3] can be described thus: Drug metabolism in pig brain homogenate assessed as N-acetyl-6-Diazo-5-oxo-L-norleucin formation by ion chromatogram analysis. Type of data set: ADME, tissue-based, Sus scrofa.
A short description of data set [4]: Metabolic stability in pig brain homogenate assessed as parent compound remaining measured after 30 mins. Particulars: read-out: Stabilty. Type of data set: ADME, tissue-based, Sus scrofa.
Data set [5] can be described thus: Metabolic stability in pig liver homogenate assessed as parent compound remaining measured after 30 mins. The format is ADME, tissue-based, Sus scrofa. Particulars: read-out: Stabilty.
Data set [6] in a line: Stability of compound in sodium acetate buffer at pH 4 assessed as parent compound remaining measured after 60 mins. The format is physicochemical. The conditions noted are these: read-out: Stabilty.
The nature of data set [7]: Stability of compound in potassium phosphate buffer at pH 7.4 assessed as parent compound remaining measured after 30 mins. Type of data set: physicochemical. Particulars: read-out: Stabilty.
Data set [8] can be described thus: Stability of the compound in DMSO measured within 12 hrs. Type of data set: physicochemical.

For `CC(=O)N[C@@H](CCC(=O)Cn1nnc2c(C(N)=O)ncn2c1=O)C(=O)O`, the Drug metabolism result was “Metabolite_Notdetected” in data set [1] and “Metabolite_Detected” in data set [3]. The Stabilty entry in data set [2] is “Stable”. Besides, the remaining at 0.5 h in data set [4], in data set [5] and in data set [7] was below 5% in each case. In data set [6], the remaining at 1 h is above 95%.
Regarding `CC(=O)NC(CCC(=O)CN(N=O)C(=O)OCc1ccccc1)C(=O)O` (stereo not drawn), in data set [8], the Stabilty entry was “Unstable”.

(Values after ChEMBL document CHEMBL4834487, “Model studies towards prodrugs of the glutamine antagonist 6-diazo-5-oxo-l-norleucine (DON) containing a diazo precursor” (Bioorg Med Chem Lett, 2021).)
